Active and inactive are the calls of the source.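 Rule for the calls: active = tumour findings in long-term animal cancer tests in more than one sex, species or organ; inactive = no tumour finding and more than one negative test.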
assay: DSSTox (CPDBAS) Carcinogenic Potency Database Summary MultiCellCall Results; settings: animal carcinogenicity bioassays, multi-cell call summary
Outline: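 Summary call drawn from chronic long-term cancer bioassays in rats, mice, hamsters, dogs and nonhuman primates, using the most positive result per sex-species. Score: multispecies=50, multisex=30, multisite=20, summed for combinations.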

SMILES | outcome
Cn1cnc([N+](=O)[O-])c1Sc1ncnc2nc[nH]c12 | active; multisite active
CN(C)C(=S)[S-].CN(C)C(=S)[S-].[Cu+2] | inactive; multisex inactive
CCc1nc(N)nc(N)c1-c1ccc(Cl)cc1 | inactive; multisex inactive; multispecies inactive
Nc1ccc2nc3ccccn3c2n1 | active; multisite active; multisex active; multispecies active
C/C=C/c1ccc(OC)cc1 | inactive; multisex inactive
c1ccc(NNc2ccccc2)cc1 | active; multisite active; multisex active; multispecies active
O=[N+]([O-])c1ccc2nc[nH]c2c1 | active; multisex active
Clc1ccc(C(c2ccccc2Cl)C(Cl)Cl)cc1 (stereo not given) | inactive; multisex inactive
COC(=O)C1=C(C)NC(C)=C(C(=O)OCCc2ccc(N3CCN(C(c4ccccc4)c4ccccc4)CC3)cc2)C1c1cccc([N+](=O)[O-])c1 (stereo not given) | inactive; multisex inactive; multispecies inactive
CCCOC(=O)c1cc(O)c(O)c(O)c1 | inactive; multisex inactive; multispecies inactive
O=NN(CC(F)(F)F)CC(F)(F)F | inactive; multisex inactive
CC1=C(C(=O)OC(C)C)C(c2cccc([N+](=O)[O-])c2)C(C(=O)OC2CN(C(c3ccccc3)c3ccccc3)C2)=C(N)N1 (stereo not given) | inactive; multisex inactive; multispecies inactive
O=c1c(CO)c/c(=N/Nc2ccc(S(=O)(=O)O)c3ccccc23)c(=O)/c1=N/Nc1ccc(S(=O)(=O)O)c2ccccc12 | inactive; multisex inactive
CCNC(=O)Nc1ncc([N+](=O)[O-])s1 | active; multisite active; multisex active; multispecies active
CNc1ncnc2nc[nH]c12 | inactive; multisex inactive
FC(Cl)(Cl)Cl | inactive; multisex inactive; multispecies inactive
O=[N+]([O-])c1cc(N(CCO)CCO)ccc1NCCO | inactive; multisex inactive; multispecies inactive
O=P(OCC(Br)CBr)(OCC(Br)CBr)OCC(Br)CBr (stereo not given) | active; multisite active; multisex active; multispecies active
Cc1ccccc1N=O | active; multisite active
C#C[C@]1(OC(C)=O)CC[C@H]2[C@@H]3CCC4=CC(=O)CC[C@@H]4[C@H]3CC[C@@]21C | active; multisite active; multispecies active
Clc1ccc(Sc2cc(Cl)c(Cl)cc2Cl)cc1 | inactive; multisex inactive
CC(C)(C)O | active; multisite active; multisex active; multispecies active
Nc1ccccc1N | active; multisex active; multispecies active
Oc1cccc2cccnc12 | inactive; multisex inactive; multispecies inactive
CC1CN(N=O)CC(C)N1C (stereo not given) | active; multisite active; multisex active; multispecies active

SMILES | outcome
COP(=S)(OC)Oc1ccc(SC)c(C)c1 | inactive; multisex inactive; multispecies inactive
[Cd+2].[Cl-].[Cl-] | active; multisite active; multisex active
O=C1C(Cl)=C(Cl)C(=O)c2ccccc21 | inactive; multisex inactive
CNC[C@H](O)c1cccc(O)c1 | inactive; multisex inactive; multispecies inactive
COc1ccc2nc(S(=O)Cc3ncc(C)c(OC)c3C)[nH]c2c1 (stereo not given) | active; multisex active
CN(CCCC(=O)c1cccnc1)N=O | active; multisite active
CC1=CC(=O)CC(C)(C)C1 | active; multisite active
CCCCCN(N=O)C(=O)OCC | active; multisite active
C=Cc1ccc(C)cc1 | inactive; multisex inactive
O=P(OCCCl)(OCCCl)OCCCl | active; multisite active; multisex active; multispecies active
CC(=O)CN(N=O)C(N)=O | active; multisex active
CCCCNN | active; multisex active
C=CCc1ccc2c(c1)OCO2 | active; multisex active; multispecies active
Cn1cc(C(=O)O)c(=O)c2ccc(/C=C/c3ccc([N+](=O)[O-])o3)nc21 | active; multisite active
CN1[C@@H]2CC(OC(=O)[C@@H](CO)c3ccccc3)C[C@H]1[C@@H]1O[C@@H]12 (stereo not given in full) | inactive; multisex inactive; multispecies inactive
ClC(Cl)Cl | active; multisite active; multisex active; multispecies active
CCOC(=O)C1OC1(C)c1ccccc1 (stereo not given) | inactive; multisex inactive
C[C@H]1CCCC(=O)CCC/C=C/c2cc(O)cc(O)c2C(=O)O1 | active; multisite active; multisex active
CCOCCc1c(-c2ccccc2)nc(N)n2ncnc12 | active; multisite active; multisex active
C[N+](C)(C)CCO | inactive; multispecies inactive
Cc1cc(C)nc(NS(=O)(=O)c2ccc(N)cc2)n1 | active; multisex active
Clc1cc2c(cc1Cl)Oc1cc(Cl)c(Cl)cc1O2 | active; multisite active; multisex active; multispecies active
O=NN1CCCCC1C(=O)O (stereo not given) | inactive; multisex inactive
COC(=O)NN | inactive; multisex inactive
CC(=O)Nc1ccc2c(c1)Cc1cc(NC(C)=O)ccc1-2 | inactive; multispecies inactive

From PubChem BioAssay AID1205 (EPA DSSTox, 2008)
